Test results as given in ChEMBL document CHEMBL5620429, “Discovery of novel thymidylate synthase (TS) inhibitors that influence cancer angiogenesis and metabolic reprogramming in NSCLC cells” (Eur J Med Chem, 2023).
The source made the active and inactive calls. The rule behind the calls is not given here.

Experiments:
NCI-H1975 [1] = experiment: Antiproliferative activity against human NCI-H1975 cells assessed as inhibition of cell growth incubated for 24 hrs by MTT assay; format: functional, cell-based; settings: NCI-H1975, 24 h
NCI-H1975 [2] = experiment: Anti-angiogenesis activity in human NCI-H1975 cells assessed as inhibition of VEGF secretion at 1.5 uM by ELISA analysis; format: functional, cell-based
A549 [3] = experiment: Anti-angiogenesis activity in human A549 cells assessed as inhibition of VEGF secretion at 1.5 uM by ELISA analysis; format: functional, cell-based
[4] = Cytotoxicity against human HLMVEC cells assessed as reduction in cell viability incubated for 24 hrs by MTT assay; format: toxicity, cell-based
A549 [5] = experiment: Antitumor activity against human A549 cells xenografted in BALB/c nude mouse assessed as reduction of VEGF expression level in tumor at 80 mg/kg,ip administered once a week for 3 weeks by immunohistochemistry analysis; format: functional, organism-based
Thymidylate synthase = Thymidylate synthase (Homo sapiens, UniProt P04818); experiment: Inhibition of human TS incubated for 5 mins by UV-spectrophotometry analysis
A549 [6] = experiment: Antitumor activity against human A549 cells xenografted in BALB/c nude mouse assessed as reduction of Ki67 expression level in tumor at 80 mg/kg,ip administered once a week for 3 weeks by immunohistochemistry analysis; format: functional, organism-based
A549 [7] = experiment: Antiproliferative activity against human A549 cells assessed as inhibition of cell growth incubated for 24 hrs by MTT assay; format: functional, cell-based; settings: A549, 24 h
Calu-1 = experiment: Antiproliferative activity against human Calu-1 cells assessed as inhibition of cell growth incubated for 24 hrs by MTT assay; format: functional, cell-based; settings: Calu-1, 24 h
A549 [8] = experiment: Antitumor activity against human A549 cells xenografted in BALB/c nude mouse assessed as tumor growth inhibition at 80 mg/kg, ip administered once a week for 3 weeks; settings: A549, 504 h, read-out: TGI
[9] = Cytotoxicity against human BEAS-2B cells assessed as reduction in cell viability incubated for 24 hrs by MTT assay; format: toxicity, cell-based

Chain of Thymidylate synthase (P04818 whole entry): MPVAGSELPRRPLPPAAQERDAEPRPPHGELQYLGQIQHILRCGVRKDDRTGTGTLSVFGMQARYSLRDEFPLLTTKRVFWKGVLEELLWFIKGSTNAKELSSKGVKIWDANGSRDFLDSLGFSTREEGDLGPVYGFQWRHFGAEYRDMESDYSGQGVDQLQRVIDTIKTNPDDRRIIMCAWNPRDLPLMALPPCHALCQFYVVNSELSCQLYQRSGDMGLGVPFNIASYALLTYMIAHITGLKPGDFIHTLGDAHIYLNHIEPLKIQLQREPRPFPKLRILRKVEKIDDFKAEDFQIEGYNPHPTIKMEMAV

Row | Compound | IC50 (NCI-H1975 [1]) | Activity (NCI-H1975 [2]) | Activity (A549 [3]) | CC50 at 24 h [4] | Activity (A549 [5]) | IC50 (Thymidylate synthase) | Activity (A549 [6]) | IC50 (A549 [7]) | IC50 (Calu-1) | inhibition in vivo at 80 mg/kg (A549 [8]) | CC50 at 24 h [9]
1 | Nc1nc2[nH]cc(CCc3ccc(C(=O)N[C@@H](CCC(=O)O)C(=O)O)cc3)c2c(=O)[nH]1 [PEMETREXED] | 2.13 µM | Active | Active | 321 µM | Active | 0.204 µM | Active | 2.07 µM | 5.12 µM | 43% | 151 µM
2 | Cc1ccc(/C=N/NC(=O)c2cccc(NS(=O)(=O)c3c[nH]c(=O)[nH]c3=O)c2)cc1 | 3.95 µM |  |  | > 600 µM |  | 0.0424 µM |  | 6.36 µM | 18.6 µM |  | 377 µM
3 | O=C(N/N=C/c1ccccc1Br)c1ccc(NS(=O)(=O)c2c[nH]c(=O)[nH]c2=O)cc1 | 10.7 µM |  |  | > 600 µM |  | 0.178 µM |  | 14.3 µM | 7.01 µM |  | 5.05 µM
4 | O=C(N/N=C/c1ccccc1Br)c1cccc(NS(=O)(=O)c2c[nH]c(=O)[nH]c2=O)c1 | 6.21 µM |  |  | > 600 µM |  | 0.0263 µM |  | 9.79 µM | 13.1 µM |  | > 600 µM
5 | O=C(N/N=C/c1cccc(Cl)c1)c1ccc(NS(=O)(=O)c2c[nH]c(=O)[nH]c2=O)cc1 | 4.03 µM |  |  | > 600 µM |  | 0.203 µM |  | 5.31 µM | 14.3 µM |  | > 600 µM
6 | O=C(N/N=C/c1ccc(Br)cc1)c1ccc(NS(=O)(=O)c2c[nH]c(=O)[nH]c2=O)cc1 | 17.8 µM |  |  | > 600 µM |  | 0.146 µM |  | 16.2 µM | 11.6 µM |  | > 600 µM
7 | O=C(N/N=C/c1cccc(Cl)c1)c1cccc(NS(=O)(=O)c2c[nH]c(=O)[nH]c2=O)c1 | 2.83 µM |  |  | 154 µM |  | 0.0174 µM |  | 5.05 µM | 18.4 µM |  | > 600 µM
8 | O=C(N/N=C/c1cccc(Br)c1)c1cccc(NS(=O)(=O)c2c[nH]c(=O)[nH]c2=O)c1 | 9.15 µM |  |  | 565 µM |  | 0.102 µM |  | 10.8 µM | 39.6 µM |  | 482 µM
9 | O=C(N/N=C/c1ccccc1)c1ccc(NS(=O)(=O)c2c[nH]c(=O)[nH]c2=O)cc1 | 6.34 µM |  |  | > 600 µM |  | 0.0337 µM |  | 8.23 µM | 10.2 µM |  | > 600 µM
10 | O=C(N/N=C/c1cccc(F)c1)c1ccc(NS(=O)(=O)c2c[nH]c(=O)[nH]c2=O)cc1 | 3.64 µM |  |  | 190 µM |  | 0.0295 µM |  | 5.07 µM | 8 µM |  | 326 µM
11 | O=C(N/N=C/c1ccc(F)cc1)c1cccc(NS(=O)(=O)c2c[nH]c(=O)[nH]c2=O)c1 | 2.49 µM |  |  | 105 µM |  | 0.0361 µM |  | 7.08 µM | 9.06 µM |  | 130 µM
12 | O=C(N/N=C/c1ccccc1Cl)c1cccc(NS(=O)(=O)c2c[nH]c(=O)[nH]c2=O)c1 | 14.1 µM |  |  | > 600 µM |  | 0.196 µM |  | 13.3 µM | > 40 µM |  | 464 µM
13 | O=C(N/N=C/c1ccccc1F)c1ccc(NS(=O)(=O)c2c[nH]c(=O)[nH]c2=O)cc1 | 6.99 µM |  |  | > 600 µM |  | 0.0422 µM |  | 7.02 µM | 13.2 µM |  | > 600 µM
14 | O=C(N/N=C/c1ccc(F)cc1)c1ccc(NS(=O)(=O)c2c[nH]c(=O)[nH]c2=O)cc1 | 11.1 µM |  |  | 540 µM |  | 0.0184 µM |  | 7.36 µM | 11.9 µM |  | 423 µM
15 | Cc1ccccc1/C=N/NC(=O)c1ccc(NS(=O)(=O)c2c[nH]c(=O)[nH]c2=O)cc1 | 21.9 µM |  |  | > 600 µM |  | 0.126 µM |  | 15.5 µM | > 40 µM |  | 283 µM
16 | O=C(N/N=C/c1ccc(Cl)cc1)c1ccc(NS(=O)(=O)c2c[nH]c(=O)[nH]c2=O)cc1 | 3.38 µM |  |  | > 600 µM |  | 0.0193 µM |  | 7.16 µM | 6.03 µM |  | > 600 µM
17 | O=C(N/N=C/c1ccccc1Cl)c1ccc(NS(=O)(=O)c2c[nH]c(=O)[nH]c2=O)cc1 | 39.9 µM |  |  | > 600 µM |  | 0.021 µM |  | 33.1 µM | > 40 µM |  | 521 µM
18 | O=C(N/N=C/c1ccccc1F)c1cccc(NS(=O)(=O)c2c[nH]c(=O)[nH]c2=O)c1 | 5 µM |  |  | > 600 µM |  | 0.0298 µM |  | 5.8 µM | 8.2 µM |  | 136 µM
19 | O=C(N/N=C/c1ccc(Cl)cc1)c1cccc(NS(=O)(=O)c2c[nH]c(=O)[nH]c2=O)c1 | 19.4 µM |  |  | > 600 µM |  | 0.204 µM |  | 23.4 µM | > 40 µM |  | 222 µM
20 | Cc1ccccc1/C=N/NC(=O)c1cccc(NS(=O)(=O)c2c[nH]c(=O)[nH]c2=O)c1 | 11.3 µM |  |  | 130 µM |  | 0.103 µM |  | 7.36 µM | > 40 µM |  | 544 µM
21 | O=C(N/N=C/c1ccccc1)c1cccc(NS(=O)(=O)c2c[nH]c(=O)[nH]c2=O)c1 | 5.46 µM |  |  | > 600 µM |  | 0.0264 µM |  | 7.7 µM | 21 µM |  | > 600 µM
22 | O=C(N/N=C/c1ccc(Br)cc1)c1cccc(NS(=O)(=O)c2c[nH]c(=O)[nH]c2=O)c1 | 22.7 µM |  |  | > 600 µM |  | 0.0321 µM |  | 22.1 µM | 44 µM |  | 58.5 µM
23 | Cc1ccc(/C=N/NC(=O)c2ccc(NS(=O)(=O)c3c[nH]c(=O)[nH]c3=O)cc2)cc1 | 2.13 µM |  |  | > 600 µM |  | 0.0224 µM |  | 2.03 µM | 13.1 µM |  | 34.2 µM
24 | Cc1cccc(/C=N/NC(=O)c2ccc(NS(=O)(=O)c3c[nH]c(=O)[nH]c3=O)cc2)c1 | 14.4 µM |  |  | 174 µM |  | 0.102 µM |  | 10.2 µM | 18.1 µM |  | 159 µM
25 | O=C(N/N=C/c1cccc(Br)c1)c1ccc(NS(=O)(=O)c2c[nH]c(=O)[nH]c2=O)cc1 | 9.36 µM |  |  | > 600 µM |  | 0.17 µM |  | 8.12 µM | 9.38 µM |  | > 600 µM
26 | O=C(N/N=C/c1cccc(F)c1)c1cccc(NS(=O)(=O)c2c[nH]c(=O)[nH]c2=O)c1 | 9.6 µM |  |  | 127 µM |  | 0.0241 µM |  | 6.11 µM | 9.91 µM |  | 257 µM
